# Results as given in patent US20020137929A1, “1 - (3-heterocyclylphenyl) isothiourea, -isourea, -guanidine and -amidine herbicidal agents” (Intellectual Property Department, BASF Aktiengesellschaft, priority 1998, published 2002).
# Columns and labels:
# [1] = tested on: GALAP (Galium); assay: Preemergence herbicidal evaluation; assay type: in vivo, Galium aparine; details: rated 4-5 weeks after treatment
# Procedure, shortened: (§1)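 Seeds were mixed with potting soil and planted on about one inch of soil, then sprayed with test compound in aqueous acetone at about 0.0156 to 0.500 kg per hectare. Plants grew under standard greenhouse care and were visually rated 0-9 against untreated controls 4-5 weeks post-treatment.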
# [2] = tested on: CASOB (Sicklepod); assay: Preemergence herbicidal evaluation; assay type: in vivo, Cassia obtusifolia; details: rated 4-5 weeks after treatment
# Procedure, shortened: as §1
# [3] = tested on: AMBEL (Ragweed, Common); assay: Postemergence herbicidal evaluation; assay type: in vivo, Ambrosia artemisifolia; details: postemergence
# Procedure, shortened: (§2)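 First, seedlings were raised for around two weeks. Next, test material in 50/50 acetone/water containing 0.5% TWEEN 20 was sprayed through a nozzle at 40 psi, equivalent to about 0.0156–0.500 kg/ha. Finally, after 4–5 weeks in the greenhouse, plants were rated 0–9.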
# [4] = tested on: CHEAL (Lambsquarters, Common); assay: Preemergence herbicidal evaluation; assay type: in vivo, Chenopodium album; details: rated 4-5 weeks after treatment
# Procedure, shortened: as §1
# [5] = tested on: CHEAL (Lambsquarters, Common); assay: Postemergence herbicidal evaluation; assay type: in vivo, Chenopodium album; details: postemergence
# Procedure, shortened: as §2
# [6] = tested on: ECHCG (Barnyardgrass); assay: Postemergence herbicidal evaluation; assay type: in vivo, Echinochloa crus-galli; details: postemergence
# Procedure, shortened: as §2
# [7] = tested on: AMBEL (Ragweed, Common); assay: Preemergence herbicidal evaluation; assay type: in vivo, Ambrosia artemisifolia; details: rated 4-5 weeks after treatment
# Procedure, shortened: as §1
# [8] = tested on: ZEAMX (Corn, Field); assay: Postemergence herbicidal evaluation; assay type: in vivo, Zea mays; details: postemergence
# Procedure, shortened: as §2
# [9] = tested on: GLXMAW (Soybean, Williams); assay: Postemergence herbicidal evaluation; assay type: in vivo, Glycine max, (L.) Merr. cv Williams; details: postemergence
# Procedure, shortened: as §2
# [10] = tested on: ABUTH (Velvetleaf); assay: Postemergence herbicidal evaluation; assay type: in vivo, Abutilon theophrasti; details: postemergence
# Procedure, shortened: as §2
# [11] = tested on: CYPSE (Flatsedge); assay: Preemergence weed control under flooded paddy conditions; assay type: in vivo, Cyperus serotinus; details: rated 3-4 weeks after treatment
# Procedure, shortened: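 Flooded-pot preemergence screen with silt loam and seeds in the upper 0.5 cm. Dose about 0.0313 to 0.500 kg/ha, delivered into flood water; visual 0-9 score after 3 to 4 weeks.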
# [12] = tested on: ORYSAT (Rice, Tebonnet); assay: Postemergence herbicidal evaluation; assay type: in vivo, Oryza sativa, (L.) Tebonnet; details: postemergence
# Procedure, shortened: as §2
# [13] = rate 0.0156 kg/ha, rating scale 0-9
# [14] = rate 0.0313 kg/ha, rating scale 0-9
# [15] = rate 0.0625 kg/ha, rating scale 0-9
# [16] = rate 0.1250 kg/ha, rating scale 0-9
# [17] = rate 0.2500 kg/ha, rating scale 0-9
compound,measurement,setting,value
"CN1C(=O)C(CC(=O)NO)SC1=Nc1cc(-n2c(=O)cc(C(F)(F)F)n(C)c2=O)c(F)cc1Cl (stereo not shown) [Compound 162, 2-{{2-Chloro-5-[3,6-dihydro-3-methyl-2,6-dioxo-4-(trifluoromethyl)-1(2H)-pyrimidinyl]-4-fluorophenyl}imino}-3-methyl-4-oxo-5-thiazolidineacetohydroxamic acid]",Preemergence herbicidal rating GALAP,[1]; 0.0156 kg/ha,0.0
same,Preemergence herbicidal rating GALAP,[1]; 0.0313 kg/ha,0.0
same,Preemergence herbicidal rating GALAP,[1]; 0.0625 kg/ha,0.0
same,Preemergence herbicidal rating GALAP,[1]; 0.1250 kg/ha,3.0
same,Preemergence herbicidal rating GALAP,[1]; 0.2500 kg/ha,3.0
same,Preemergence herbicidal rating CASOB,[2]; 0.0156 kg/ha,0.0
same,Preemergence herbicidal rating CASOB,[2]; 0.0625 kg/ha,0.0
same,Preemergence herbicidal rating CASOB,[2]; 0.1250 kg/ha,0.0
same,Preemergence herbicidal rating CASOB,[2]; 0.2500 kg/ha,4.0
same,herbicidal rating AMBEL,[3]; rate 0.0156 kg/ha,9.0
same,herbicidal rating AMBEL,[3]; rate 0.0313 kg/ha,9.0
same,herbicidal rating AMBEL,[3]; rate 0.0625 kg/ha,9.0
same,Preemergence herbicidal rating CHEAL,[4]; 0.0156 kg/ha,9.0
same,Preemergence herbicidal rating CHEAL,[4]; 0.0313 kg/ha,9.0
same,Preemergence herbicidal rating CHEAL,[4]; 0.0625 kg/ha,9.0
same,Preemergence herbicidal rating CHEAL,[4]; 0.1250 kg/ha,9.0
same,Preemergence herbicidal rating CHEAL,[4]; 0.2500 kg/ha,9.0
same,herbicidal rating CHEAL,[5]; rate 0.0156 kg/ha,9.0
same,herbicidal rating CHEAL,[5]; rate 0.0313 kg/ha,9.0
same,herbicidal rating CHEAL,[5]; rate 0.0625 kg/ha,9.0
same,herbicidal rating ECHCG,[6]; rate 0.0156 kg/ha,0.0
same,herbicidal rating ECHCG,[6]; rate 0.0313 kg/ha,0.0
same,herbicidal rating ECHCG,[6]; rate 0.0625 kg/ha,0.0
same,Preemergence herbicidal rating AMBEL,[7]; 0.0156 kg/ha,0.0
same,Preemergence herbicidal rating AMBEL,[7]; 0.0313 kg/ha,3.0
same,Preemergence herbicidal rating AMBEL,[7]; 0.0625 kg/ha,5.0
same,Preemergence herbicidal rating AMBEL,[7]; 0.1250 kg/ha,9.0
same,Preemergence herbicidal rating AMBEL,[7]; 0.2500 kg/ha,9.0
same,herbicidal rating ZEAMX,[8]; rate 0.0156 kg/ha,4.5
same,herbicidal rating ZEAMX,[8]; rate 0.0313 kg/ha,5.0
same,herbicidal rating ZEAMX,[8]; rate 0.0625 kg/ha,5.5
same,herbicidal rating GLXMAW,[9]; rate 0.0156 kg/ha,6.0
same,herbicidal rating GLXMAW,[9]; rate 0.0313 kg/ha,6.5
same,herbicidal rating GLXMAW,[9]; rate 0.0625 kg/ha,8.5
same,herbicidal rating ABUTH,[10]; rate 0.0156 kg/ha,9.0
same,herbicidal rating ABUTH,[10]; rate 0.0313 kg/ha,9.0
same,herbicidal rating ABUTH,[10]; rate 0.0625 kg/ha,9.0
same,"herbicidal effect rating, CYPSE",[11]; 0.1250 kg/ha,9.0
same,"herbicidal effect rating, CYPSE",[11]; 0.2500 kg/ha,9.0
same,herbicidal rating ORYSAT,[12]; rate 0.0156 kg/ha,0.5
same,herbicidal rating ORYSAT,[12]; rate 0.0313 kg/ha,1.5
same,herbicidal rating ORYSAT,[12]; rate 0.0625 kg/ha,1.5
"Cn1c(C(F)(F)F)cc(=O)n(-c2cc(N=C3SCC(=O)N3Cc3ccc(S(N)(=O)=O)cc3)c(Cl)cc2F)c1=O [Compound 135, Alpha-{2-{{2-chloro-5-[3,6-dihydro-3-methyl-2,6-dioxo-4-(trifluoromethyl)-1(2H)-pyrimidinyl]-4-fluorophenyl}imino}-4-oxo-3-thiazolidinyl}-p-toluenesulfonamide]",Preemergence herbicidal rating GALAP,[1]; [13],0.0
same,Preemergence herbicidal rating GALAP,[1]; [14],0.0
same,Preemergence herbicidal rating GALAP,[1]; [15],0.0
same,Preemergence herbicidal rating GALAP,[1]; [16],0.0
same,Preemergence herbicidal rating GALAP,[1]; [17],1.0
same,Preemergence herbicidal rating CASOB,[2]; [13],0.0
same,Preemergence herbicidal rating CASOB,[2]; [14],1.0
same,Preemergence herbicidal rating CASOB,[2]; [15],1.0
same,Preemergence herbicidal rating CASOB,[2]; [16],1.0
same,Preemergence herbicidal rating CASOB,[2]; [17],5.0
same,herbicidal rating AMBEL,[3]; rate 0.0156 kg/ha,9.0
same,herbicidal rating AMBEL,[3]; rate 0.0313 kg/ha,9.0
same,herbicidal rating AMBEL,[3]; rate 0.0625 kg/ha,9.0
same,Preemergence herbicidal rating CHEAL,[4]; [13],7.0
same,Preemergence herbicidal rating CHEAL,[4]; [14],7.0
same,Preemergence herbicidal rating CHEAL,[4]; [15],9.0
same,Preemergence herbicidal rating CHEAL,[4]; [16],9.0
same,Preemergence herbicidal rating CHEAL,[4]; [17],9.0
same,herbicidal rating CHEAL,[5]; rate 0.0156 kg/ha,4.0
same,herbicidal rating CHEAL,[5]; rate 0.0313 kg/ha,7.0
same,herbicidal rating CHEAL,[5]; rate 0.0625 kg/ha,9.0
same,herbicidal rating ECHCG,[6]; rate 0.0156 kg/ha,1.0
same,herbicidal rating ECHCG,[6]; rate 0.0313 kg/ha,2.0
same,herbicidal rating ECHCG,[6]; rate 0.0625 kg/ha,2.0
same,Preemergence herbicidal rating AMBEL,[7]; [13],0.0
same,Preemergence herbicidal rating AMBEL,[7]; [14],0.0
same,Preemergence herbicidal rating AMBEL,[7]; [15],0.0
same,Preemergence herbicidal rating AMBEL,[7]; [16],4.0
same,Preemergence herbicidal rating AMBEL,[7]; [17],7.0
same,herbicidal rating ZEAMX,[8]; rate 0.0156 kg/ha,3.5
same,herbicidal rating ZEAMX,[8]; rate 0.0313 kg/ha,4.0
same,herbicidal rating ZEAMX,[8]; rate 0.0625 kg/ha,4.0
same,herbicidal rating GLXMAW,[9]; rate 0.0156 kg/ha,5.0
same,herbicidal rating GLXMAW,[9]; rate 0.0313 kg/ha,5.0
same,herbicidal rating GLXMAW,[9]; rate 0.0625 kg/ha,5.0
same,herbicidal rating ABUTH,[10]; rate 0.0156 kg/ha,4.0
same,herbicidal rating ABUTH,[10]; rate 0.0313 kg/ha,9.0
same,herbicidal rating ABUTH,[10]; rate 0.0625 kg/ha,9.0
same,"herbicidal effect rating, CYPSE",[11]; 0.1250 kg/ha,0.0
same,"herbicidal effect rating, CYPSE",[11]; 0.2500 kg/ha,0.0
same,herbicidal rating ORYSAT,[12]; rate 0.0156 kg/ha,2.0
same,herbicidal rating ORYSAT,[12]; rate 0.0313 kg/ha,2.0
same,herbicidal rating ORYSAT,[12]; rate 0.0625 kg/ha,2.5
